Reference: patent US8592174B2, “Peptidase substrates” (bioMérieux, S.A., priority 2009, dated 2013)

How the values were obtained:
Assay in all cases: Peptidase detection on Columbia medium (Example 2)
Format in all cases: cell-based
Conditions in all cases: 40 mg in 400 ml Columbia; 24 h 37° C.
[1] = tested on: Enterococcus faecalis NCTC 775; parameters: key to Growth: NG: No growth; 0.5: weak growth; 1: moderate growth; 2: good growth; key to Fluo. / Color / Color post-acid.: —: no color
Experimental: (§1) The 6 media were distributed into Petri dishes 90 mm in diameter, in a proportion of 20 ml per dish.
(§2) Seventeen strains of microorganisms stemming from collections and belonging to various species of bacteria and yeasts are inoculated in spots of approximately 10 000 colony-forming units.
(§3) The media are incubated for 24 hours at 37° C., and then the colonies formed are examined visually, with or without the addition of acid and under a UV lamp at 365 nm.

[2] = tested on: Salmonella typhimurium NCTC 74; parameters: key to Growth: NG: No growth; 0.5: weak growth; 1: moderate growth; 2: good growth
Experimental: as §1, §2, §3

[3] = tested on: Staphylococcus aureus NCTC 6 571; parameters: key to Growth: NG: No growth; 0.5: weak growth; 1: moderate growth; 2: good growth; key to Fluo. / Color / Color post-acid.: —: no color
Experimental: as §1, §2, §3

[4] = tested on: Serratia marcescens NCTC 10 211; parameters: key to Growth: NG: No growth; 0.5: weak growth; 1: moderate growth; 2: good growth
Experimental: as §1, §2, §3

[5] = tested on: Staphylococcus epidermidis NCTC 11 047; parameters: key to Growth: NG: No growth; 0.5: weak growth; 1: moderate growth; 2: good growth; key to Fluo. / Color / Color post-acid.: —: no color
Experimental: as §1, §2, §3

[6] = tested on: Providencia rettgeri NCTC 7 475; parameters: key to Growth: NG: No growth; 0.5: weak growth; 1: moderate growth; 2: good growth
Experimental: as §1, §2, §3

[7] = tested on: Candida albicans ATCC 90 028; parameters: key to Growth: NG: No growth; 0.5: weak growth; 1: moderate growth; 2: good growth; key to Fluo. / Color / Color post-acid.: —: no color
Experimental: as §1, §2, §3

[8] = tested on: Enterobacter cloacae NCTC 11 936; parameters: key to Growth: NG: No growth; 0.5: weak growth; 1: moderate growth; 2: good growth
Experimental: as §1, §2, §3

[9] = tested on: Escherichia coli NCTC 10 418; parameters: key to Growth: NG: No growth; 0.5: weak growth; 1: moderate growth; 2: good growth
Experimental: as §1, §2, §3

[10] = tested on: Yersinia enterocolitica NCTC 11 176; parameters: key to Growth: NG: No growth; 0.5: weak growth; 1: moderate growth; 2: good growth; key to Color: —: no color
[11] = tested on: Staphylococcus aureus NCTC 11 939; parameters: key to Growth: NG: No growth; 0.5: weak growth; 1: moderate growth; 2: good growth; key to Fluo. / Color / Color post-acid.: —: no color
Experimental: as §1, §2, §3

[12] = tested on: Pseudomonas aeruginosa NCTC 10 662; parameters: key to Growth: NG: No growth; 0.5: weak growth; 1: moderate growth; 2: good growth; key to Color: —: no color
Experimental: as §1, §2, §3

[13] = tested on: Enterococcus faecium NCTC 7 171; parameters: key to Growth: NG: No growth; 0.5: weak growth; 1: moderate growth; 2: good growth; key to Fluo. / Color / Color post-acid.: —: no color
Experimental: as §1, §2, §3

[14] = tested on: Listeria monocytogenes NCTC 11 994; parameters: key to Growth: NG: No growth; 0.5: weak growth; 1: moderate growth; 2: good growth; key to Fluo. / Color / Color post-acid.: —: no color
Experimental: as §1, §2, §3

[15] = tested on: Bacillus subtilis NCTC 9 372; parameters: key to Growth: NG: No growth; 0.5: weak growth; 1: moderate growth; 2: good growth; key to Fluo. / Color / Color post-acid.: —: no color
Experimental: as §1, §2, §3

[16] = tested on: Candida glabrata NCPF 3 943; parameters: key to Growth: NG: No growth; 0.5: weak growth; 1: moderate growth; 2: good growth; key to Fluo. / Color / Color post-acid.: —: no color
Experimental: as §1, §2, §3

[17] = tested on: Streptococcus pyogenes NCTC 8 306; parameters: key to Growth: NG: No growth; 0.5: weak growth; 1: moderate growth; 2: good growth; key to Fluo. / Color / Color post-acid.: —: no color
Experimental: as §1, §2, §3

| SMILES | Growth [1] | Growth [2] | Color [3] | Growth [3] | Color [4] | Growth [4] | Color [5] | Growth [5] | Growth [6] | Color [7] | Growth [7] | Color [8] | Growth [8] | Color [9] | Growth [9] | Growth [10] | Color [11] | Growth [11] | Color [12] | Growth [12] | other results |
| --- | --- | --- | --- | --- | --- | --- | --- | --- | --- | --- | --- | --- | --- | --- | --- | --- | --- | --- | --- | --- | --- |
| C[n+]1ccc(C=Cc2ccc(NC(=O)CC[C@H](N)C(=O)O)cc2)c2ccccc21.Cl.[Cl-] [λ-Glu-ASQM^+, L-gamma-glutamyl-4-(4′-amidostyryl)-N-methylquinolinium (dichloride)] | 1 | 2 | — | 1 | Orange | 2 | — | 1 | 2 | — | 1 | Orange | 2 | Orange | 2 | 2 | — | 1 | Orange | 2 | Color [1]: —; Color [2]: Orange; Color [6]: Orange; Color [10]: —; Color [13]: —; Growth [13]: 1; Color [14]: —; Growth [14]: 1; Color [15]: —; Growth [15]: 1; Color [16]: —; Growth [16]: 1; Color [17]: —; Growth [17]: 1 |
| C[n+]1ccc(C=Cc2ccc(NC(=O)[C@@H](N)Cc3ccc(O)cc3)cc2)c2ccccc21.Cl.[Cl-] [Tyr-ASQM^+, L-tyrosyl-4-(4′-amidostyryl)-N-methylquinolinium dihydrochloride] | 1 | 2 | — | NG | Orange | 2 | — | 0.5 | 2 | — | 0.5 | Orange | 2 | Orange | 2 | 2 | — | NG | — | 2 | Color [13]: —; Growth [13]: 1; Color [14]: —; Growth [14]: 1; Color [15]: —; Growth [15]: 1; Color [16]: —; Growth [16]: NG; Color [17]: —; Growth [17]: NG |
